Laboratory results taken from patent publication US20240309018A1, “THIAZOLE-LACTAM-SPIROHETEROCYCLIC COMPOUNDS AND APPLICATIONS THEREOF” (D3 BIO (WUXI) CO., LTD, priority 2021, published 2024).
“Also recorded” adds a separate entry of the source.

Experiments:
[1] = Body weight and tolerance in A375 model animals; assay type: in vivo; conditions: 12.5, 25 and 50 mg/kg PO BID, to the 21st day
Procedure: • 3) Daily observation of assay animals: The development of this assay protocol and any modifications were evaluated and approved by the Institutional Animal Care and Use Committee (IACUC). The use and welfare of assay animals were carried out in accordance with the regulations of the Association for Assessment and Accreditation of Laboratory Animal Care (AAALAC). Animals were monitored daily for health and death. […] Animal deaths and side effects in each group were recorded based on the number of animals in each group. • 4) Formulation of assay compound • a) Vehicle group: 5% DMSO+95% (20% HP-β-CD). • b) Assay compound group: A quantitative amount of the assay compound was weighed in a formulation bottle. […] A corresponding volume of 20% HP-β-CD was added and then the mixture was vortexed to obtain a homogeneous suspension. • 5) Tumor measurement and assay indicator: • a) Tumor diameter was measured twice a week with a vernier caliper. The calculation formula of tumor volume was: TV=1/2×a×b^2, wherein a and b represent the long and short diameters of tumor, respectively: • b) The tumor-inhibitory efficacy of the compound was evaluated by TGI (%). […]

[2] = In vivo PK study in beagle dogs; design: species or system beagle dog; conditions: male beagle dogs
Procedure: Male beagle dogs were used as assay animals. After a single administration, the plasma concentration of the compound was measured and the pharmacokinetic behavior was evaluated.
Five healthy adult male beagle dogs were selected, wherein 2 were in an intravenous injection group, and 3 were in an oral group. The vehicle in the intravenous injection group was 5% DMSO+95% (20% HP-β-CD). The compound to be assayed was mixed with an appropriate amount of vehicle for intravenous injection, and dissolved with stirring to prepare a clear solution of 0.4 mg/mL. The clear solution was filtered by a microporous membrane, and then ready for use. The vehicle in the oral group was 5% DMSO+95% (20% HP-β-CD). The compound to be assayed was mixed with the vehicle, and dissolved with stirring to prepare a solution of 0.3 mg/mL. […] were administered 1 mg/kg intravenously or 3 mg/kg orally, and then whole blood was collected for a certain period. Plasma was prepared. The drug concentration was analyzed by LC-MS/MS method, and the pharmacokinetic parameters were calculated by Phoenix WinNonlin software (Pharsight, USA).

ERK1 kinase = ERK1 kinase (Homo sapiens (Human), UniProt P27361); test: ERK1 in vitro kinase activity assay (33P-ATP, MBP substrate, filter-binding); assay type: biochemical
ERK1 kinase, sequence (P27361 whole entry): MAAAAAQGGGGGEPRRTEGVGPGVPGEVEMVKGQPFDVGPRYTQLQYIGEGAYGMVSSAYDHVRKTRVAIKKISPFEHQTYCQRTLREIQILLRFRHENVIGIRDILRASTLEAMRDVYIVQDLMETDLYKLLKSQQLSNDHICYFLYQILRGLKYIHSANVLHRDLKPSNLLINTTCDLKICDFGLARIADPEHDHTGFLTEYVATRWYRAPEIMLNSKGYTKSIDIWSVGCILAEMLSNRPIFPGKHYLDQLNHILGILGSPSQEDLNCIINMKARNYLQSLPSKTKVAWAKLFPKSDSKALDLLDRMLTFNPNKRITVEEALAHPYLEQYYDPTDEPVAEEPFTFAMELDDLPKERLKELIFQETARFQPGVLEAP
Procedure: The ability of the compound to inhibit ERK1 and ERK2 kinase activity was measured.
20 mM Hepes (pH 7.5), 10 mM MgCl2, 1 mM ethylenebis(oxyethylenenitrilo)tetraacetic acid (EGTA), 0.02% Brij35, 0.02 mg/mL bovine serum albumin (BSA), 0.1 mM Na3VO4, 2 mM dithiothreitol (DTT), 1% DMSO.
The assay compound was dissolved in 100% DMSO to prepare a stock solution of specific concentration. The compound was serially diluted in DMSO solution using Integra Viaflo Assist smart pipette.
• 1) The substrate MBP was prepared in freshly prepared reaction buffer; • 2) ERK1 (or ERK2) kinase was added to the above-mentioned MBP solution and mixed gently; • 3) The compound dissolved in 100% DMSO was added to the kinase reaction system using ultrasound technology (Echo550; nanoliter range), and the mixture was incubated at room temperature for 20 minutes; • 4) 33P-ATP (specific concentration of […]) was added to the reaction system, and the reaction was started at this time; • 5) The mixture was incubated at room temperature for 2 hours; • 6) The amount of radioactivity was detected by filter-binding method; • 7) ERK1 (or ERK2) kinase activity was calculated as the ratio of the remaining kinase activity in the assay sample to the kinase activity of the control group (treated by DMSO). Curve was fitted using Prism (GraphPad software) and IC50 values were calculated. • 5.

HT29 tumor cells = test: In vitro cell proliferation inhibition (CellTiterGlo); assay type: cell-based; conditions: Homo sapiens, HT-29
Procedure: The ability of the compound to inhibit the proliferation of HT29 tumor cells was measured.
The assay compound was dissolved in 100% DMSO to prepare 10 mM stock solution.
• 1) UV light of a biological safety cabin was turned on, and 30 minutes were counted down; • 2) In a 37° C. water bath, RPMI1640 medium and trypsin were preheated; • 3) After completion of the UV irradiation, the biological safety cabin was opened. The preheated medium, trypsin and phosphate buffered saline (PBS), etc. were wiped with alcohol and placed in the biological safety cabin; • 4) HT29 cells were removed from the incubator, and the old medium was removed in biological safety cabin. 10 ml of PBS was added. The mixture was shaken gently, and then PBS was removed; • 5) 1.5 ml of preheated 0.25% trypsin was added. […] The signal value was then detected. The data were analyzed using XL-Fit, and the IC50 of each compound was calculated.

Cc1cccc(CN2C(=O)c3nc(-c4nc(Nc5ccnn5C)ncc4C)sc3C23COC3)n1 [WX001]
body weight of animals [1]: did not decrease significantly; also recorded: not observed to decrease significantly
tolerance [1]: good
clearance ([2]; dog, plasma, intravenous, 1 mg/kg intravenously or 3 mg/kg orally): 10.1 mL/min/kg
Vd ([2]; dog, plasma, intravenous, 1 mg/kg intravenously or 3 mg/kg orally, read-out: Vdss): 1.29 L/kg
half-life ([2]; dog, plasma, 1 mg/kg intravenously or 3 mg/kg orally): 209 min
bioavailability ([2]; dog, plasma, 1 mg/kg intravenously, 3 mg/kg orally, oral bioavailability): 60%
Cmax ([2]; dog, single dose, 1 mg/kg intravenously or 3 mg/kg orally, plasma): 1770 nM
Oral DNAUC ([2]; 3 mg/kg orally, AUCPO/Dose): 2307.32 nM · h/mpk
IC50 (ERK1 kinase): 1.4 nM
IC50 (HT29 tumor cells): 66 nM
